# Experimental data as given in patent US20260200942A1, “PARP7 INHIBITORS AND THEIR APPLICATIONS” (CHONGQING PHARSCIN INNOBIO CO., LTD., priority 2023, published 2026).
# Target: T1, PARP7 (Homo sapiens, UniProt Q7Z3E1)
# T1 construct: purchased BPS 80527
# T1 sequence (Q7Z3E1 1-657): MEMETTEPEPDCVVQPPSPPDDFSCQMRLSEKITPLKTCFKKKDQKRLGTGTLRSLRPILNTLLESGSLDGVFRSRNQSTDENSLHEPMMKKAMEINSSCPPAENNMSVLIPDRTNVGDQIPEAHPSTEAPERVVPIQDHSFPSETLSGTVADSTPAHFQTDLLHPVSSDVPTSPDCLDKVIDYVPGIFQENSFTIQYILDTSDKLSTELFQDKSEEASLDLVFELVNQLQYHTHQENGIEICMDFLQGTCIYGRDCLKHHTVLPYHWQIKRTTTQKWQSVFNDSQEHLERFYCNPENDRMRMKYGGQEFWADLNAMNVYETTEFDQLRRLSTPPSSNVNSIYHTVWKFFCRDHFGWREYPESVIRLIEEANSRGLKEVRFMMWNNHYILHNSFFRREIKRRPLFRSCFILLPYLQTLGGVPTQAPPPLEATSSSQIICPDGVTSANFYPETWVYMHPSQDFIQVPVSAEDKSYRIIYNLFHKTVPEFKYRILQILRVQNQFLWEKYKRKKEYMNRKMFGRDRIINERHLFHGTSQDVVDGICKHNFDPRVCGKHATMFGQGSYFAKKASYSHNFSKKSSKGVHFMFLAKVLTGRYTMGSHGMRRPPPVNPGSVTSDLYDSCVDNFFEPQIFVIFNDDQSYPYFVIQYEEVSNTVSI
# Assay: PARP7 inhibitory activity assay (histone-coated 384-well plate, chemiluminescence)
# Assay type: biochemical
# Description: Inhibition rate (%) calculation formula: […]
row,Structure (SMILES),IC50
1,O=C([C@H]1CC[C@H](NCc2c[nH]c(=O)c(C(F)(F)F)c2)C1)N1C2CCC1CN(c1ncc(C(F)(F)F)cn1)C2 [Embodiment 1],1000 to 10000 nM
2,C[C@@H](CN1CC[C@@H](C(=O)N2C3CCC2CN(c2ncc(C(F)(F)F)cn2)C3)C1)Nc1cn[nH]c(=O)c1C(F)(F)F [Embodiment 2],10 to 100 nM
3,C[C@@H](CN1CC[C@H](C(=O)N2C3CCC2CN(c2ncc(C(F)(F)F)cn2)C3)C1)Nc1cn[nH]c(=O)c1C(F)(F)F [Embodiment 6],10 to 100 nM
4,O=C(c1ccc(NCc2c[nH]c(=O)c(C(F)(F)F)c2)cc1)N1C2CCC1CN(c1ncc(C(F)(F)F)cn1)C2 [Embodiment 7],100 to 1000 nM
5,C[C@@H]1CN(c2ncc(C(F)(F)F)cn2)CCN1C(=O)[C@H]1C[C@H](NCc2c[nH]c(=O)c(C(F)(F)F)c2)C1 [Embodiment 8],10 to 100 nM
6,"O=C([C@H]1CCN(Cc2c[nH]c(=O)c(C(F)(F)F)c2)C1)N1C2CCC1CN(c1ncc(C(F)(F)F)cn1)C2 [Embodiment 9, 3-(trifluoromethyl)-5-(((3S)-3-(3-(5-(trifluoromethyl)pyrimidin-2-yl)-3,8-diazabicyclo[3.2.1]octane-8-carbonyl)pyrrolidin-1-yl)methyl)pyridin-2(1H)-one]",1000 to 10000 nM
7,"O=C([C@@H]1CCN(Cc2c[nH]c(=O)c(C(F)(F)F)c2)C1)N1C2CCC1CN(c1ncc(C(F)(F)F)cn1)C2 [Embodiment 10, 3-(trifluoromethyl)-5-(((3R)-3-(3-(5-(trifluoromethyl)pyrimidin-2-yl)-3,8-diazabicyclo[3.2.1]octane-8-carbonyl)pyrrolidin-1-yl)methyl)pyridin-2(1H)-one]",10 to 100 nM
8,"O=C([C@H]1CCN(Cc2cc(C(F)(F)F)c(=O)[nH]n2)C1)N1C2CCC1CN(c1ncc(C(F)(F)F)cn1)C2 [Embodiment 11, 4-(trifluoromethyl)-6-(((3S)-3-(3-(5-(trifluoromethyl)pyrimidin-2-yl)-3,8-diazabicyclo[3.2.1]octane-8-carbonyl)pyrrolidin-1-yl)methyl)pyridazin-3(2H)-one]",100 to 1000 nM
9,O=C([C@H]1CCC[C@H](NCc2c[nH]c(=O)c(C(F)(F)F)c2)C1)N1CCN(c2ncc(C(F)(F)F)cn2)CC1 [Embodiment 16],1000 to 10000 nM
10,O=C([C@H]1CCCN(Cc2c[nH]c(=O)c(C(F)(F)F)c2)C1)N1CCN(c2ncc(C(F)(F)F)cn2)CC1 [Embodiment 17],100 to 1000 nM
11,O=C(C1CCN(Cc2c[nH]c(=O)c(C(F)(F)F)c2)CC1)N1CCN(c2ncc(C(F)(F)F)cn2)CC1 [Embodiment 18],100 to 1000 nM
12,O=c1[nH]cc(CN[C@H]2C[C@@H](C(=O)N3CCN(c4ncc(C(F)(F)F)cn4)CC3)C2)cc1C(F)(F)F [Embodiment 19],10 to 100 nM
13,O=c1[nH]nc(CN[C@H]2C[C@@H](C(=O)N3CCN(c4ncc(C(F)(F)F)cn4)CC3)C2)cc1C(F)(F)F [Embodiment 20],100 to 1000 nM
14,O=C(C1CC2(C1)CN(Cc1c[nH]c(=O)c(C(F)(F)F)c1)C2)N1CCN(c2ncc(C(F)(F)F)cn2)CC1 [Embodiment 21],1000 to 10000 nM
15,O=C([C@@H]1CCCN(Cc2c[nH]c(=O)c(C(F)(F)F)c2)C1)N1CCN(c2ncc(C(F)(F)F)cn2)CC1 [Embodiment 22],10 to 100 nM
16,C[C@H]1CN(C(=O)[C@H]2C[C@H](NCc3c[nH]c(=O)c(C(F)(F)F)c3)C2)CCN1c1ncc(C(F)(F)F)cn1 [Embodiment 23],< 10 nM
17,O=C([C@@H]1CCN(Cc2c[nH]c(=O)c(C(F)(F)F)c2)C1)N1CCN(c2ncc(C(F)(F)F)cn2)CC1 [Embodiment 24],10 to 100 nM
18,O=C(N1CCN(c2ncc(C(F)(F)F)cn2)CC1)C12CC(NCc3c[nH]c(=O)c(C(F)(F)F)c3)(C1)C2 [Embodiment 25],100 to 1000 nM
19,C[C@H]1CN(C(=O)C2CN(Cc3c[nH]c(=O)c(C(F)(F)F)c3)C2)CCN1c1ncc(C(F)(F)F)cn1 [Embodiment 26],10 to 100 nM
20,O=C(C1CN(Cc2c[nH]c(=O)c(C(F)(F)F)c2)C1)N1CCN(c2ccc(C(F)(F)F)cn2)CC1 [Embodiment 27],10 to 100 nM
21,O=c1[nH]cc(CN[C@H]2C[C@H](C(=O)N3CCN(c4ccc(C(F)(F)F)cn4)CC3)C2)cc1C(F)(F)F [Embodiment 28],10 to 100 nM

row,Structure (SMILES),IC50
1,O=C(C1CN(Cc2c[nH]c(=O)c(C(F)(F)F)c2)C1)N1CCN(c2cnc(C(F)(F)F)cn2)CC1 [Embodiment 29],10 to 100 nM
2,C[C@H]1CN(C(=O)[C@@H]2CCN(Cc3cc(C(F)(F)F)c(=O)[nH]n3)C2)CCN1c1ncc(C(F)(F)F)cn1 [Embodiment 30],10 to 100 nM
3,O=C([C@@H]1CCN(Cc2cc(C(F)(F)F)c(=O)[nH]n2)C1)N1CCN(c2ncc(C(F)(F)F)cn2)CC1 [Embodiment 31],10 to 100 nM
4,O=C(C1CN(Cc2cc(C(F)(F)F)c(=O)[nH]n2)C1)N1CCN(c2ccc(C(F)(F)F)cn2)CC1 [Embodiment 32],10 to 100 nM
5,"COc1nnc(CN(C)[C@H]2C[C@H](C(=O)N3CCN(c4ncc(C(F)(F)F)cn4)CC3)C2)cc1C(F)(F)F [Embodiment 33, ((1R,3R)-3-(((6-methoxy-5-(trifluoromethyl)pyridazin-3-yl)methyl)(methyl)amino)cyclobutyl)(4-(5-(trifluoromethyl)pyrimidin-2-yl)piperazin-1-yl)methanone]",1000 to 10000 nM
6,CN(Cc1cc(C(F)(F)F)c(=O)[nH]n1)[C@H]1C[C@H](C(=O)N2CCN(c3ncc(C(F)(F)F)cn3)CC2)C1 [Embodiment 34],10 to 100 nM
7,O=C(C1CN(Cc2cc(C(F)(F)F)c(=O)[nH]n2)C1)N1CCN2c3ncc(C(F)(F)F)cc3OCC[C@@H]2C1 [Embodiment 37],10 to 100 nM
8,O=c1[nH]nc(CN[C@H]2C[C@H](C(=O)N3CCN4c5ncc(C(F)(F)F)cc5OCC[C@@H]4C3)C2)cc1C(F)(F)F [Embodiment 38],10 to 100 nM
9,O=c1[nH]nc(CN[C@H]2C[C@H](C(=O)N3CCN4c5ncc(C(F)(F)F)cc5COC[C@H]4C3)C2)cc1C(F)(F)F [Embodiment 39],10 to 100 nM
10,"O=C(C1CN(Cc2cc(C(F)(F)F)c(=O)[nH]n2)C1)N1CCN2c3ncc(C(F)(F)F)cc3OCC[C@H]2C1 [Embodiment 40, (S)-4-(trifluoromethyl)-6-((3-(3-(trifluoromethyl)-7,7a,8,9,10,11-hexahydro-6H-pyrazino[1,2-d]pyrido[3,2-b][1,4]oxazepine-9-carbonyl)azetidin-1-yl)methyl)pyridazin-3(2H)-one]",10 to 100 nM
11,O=c1[nH]nc(CN[C@H]2C[C@H](C(=O)N3CCN4c5ncc(C(F)(F)F)cc5OCC[C@H]4C3)C2)cc1C(F)(F)F [Embodiment 41],10 to 100 nM
12,"O=C(C1CN(Cc2cc(C(F)(F)F)c(=O)[nH]n2)C1)N1CCN2c3ncc(C(F)(F)F)cc3COC[C@H]2C1 [Embodiment 42, (R)-4-(trifluoromethyl)-6-((3-(3-(trifluoromethyl)-7,7a,8,9,10,11-hexahydro-5H-pyrazino[2,1-c]pyrido[2,3-e][1,4]oxazepine-9-carbonyl)azetidin-1-yl)methyl)pyridazin-3(2H)-one]",10 to 100 nM
13,O=c1[nH]nc(CN[C@H]2C[C@H](C(=O)N3CCN4c5ncc(C(F)(F)F)cc5COC[C@@H]4C3)C2)cc1C(F)(F)F [Embodiment 43],10 to 100 nM
14,"O=C(C1CN(Cc2cc(C(F)(F)F)c(=O)[nH]n2)C1)N1CCN2c3ncc(C(F)(F)F)cc3COC[C@@H]2C1 [Embodiment 44, (S)-4-(trifluoromethyl)-6-((3-(3-(trifluoromethyl)-7,7a,8,9,10,11-hexahydro-5H-pyrazino[2,1-c]pyrido[2,3-e][1,4]oxazepine-9-carbonyl)azetidin-1-yl)methyl)pyridazin-3(2H)-one]",10 to 100 nM
15,COc1cc(C(F)(F)F)cnc1N1CCN(C(=O)[C@H]2C[C@H](NCc3cc(C(F)(F)F)c(=O)[nH]n3)C2)CC1 [Embodiment 45],10 to 100 nM
16,"N#Cc1cc(C(F)(F)F)cnc1N1CCN(C(=O)[C@H]2C[C@H](NCc3cc(C(F)(F)F)c(=O)[nH]n3)C2)CC1 [Embodiment 47, 2-(4-((1R,3R)-3-(((6-oxo-5-(trifluoromethyl)-1,6-dihydropyridazin-3-yl)methyl)amino)cyclobutane-1-carbonyl)piperazin-1-yl)-5-(trifluoromethyl)nicotinonitrile]",10 to 100 nM
17,"CC(C)(c1cc(C(F)(F)F)c(=O)[nH]n1)N1CC(C(=O)N2CCN(c3ncc(C(F)(F)F)cn3)CC2)C1 [Embodiment 49, 4-(trifluoromethyl)-6-(2-(3-(4-(5-(trifluoromethyl)pyrimidin-2-yl)piperazine-1-carbonyl)azetidin-1-yl)propan-2-yl)pyridazin-3(2H)-one]",10 to 100 nM
18,"N#Cc1cc(C(F)(F)F)cnc1N1CCN(C(=O)C2CC(NCc3cc(C(F)(F)F)c(=O)[nH]n3)C2)CC1 [Embodiment 50, 2-(4-((1R,3R)-3-(((6-oxo-5-(trifluoromethyl)-1,6-dihydropyridazin-3-yl)methyl)amino)cyclobutane-1-carbonyl)piperazin-1-yl)-5-(trifluoromethyl)nicotinonitrile]",10 to 100 nM
19,"O=C(C1CN(Cc2n[nH]c(=O)cc2OC2CCC2)C1)N1CCN(c2ncc(C(F)(F)F)cn2)CC1 [Embodiment 51, 5-cyclobutoxy-6-((3-(4-(5-(trifluoromethyl)pyrimidin-2-yl)piperazine-1-carbonyl)azetidin-1-yl)methyl)pyridazin-3(2H)-one]",100 to 1000 nM
20,O=c1cc(OC2CCC2)c(CN[C@H]2C[C@H](C(=O)N3CCN(c4ncc(C(F)(F)F)cn4)CC3)C2)n[nH]1 [Embodiment 52],10 to 100 nM
